Each structure is given as a SMILES string. The source made the active and inactive calls. No rule for the calls is given here.

This experiment concerns NF-kappaB luciferase reporter cells, PMA/ionomycin induced. Kind of experiment: inhibitors of PMA/ionomycin-induced NF-kB reporter, SAR follow-up, cell-based, PMA/ionomycin inducer, luciferase, set 2 (AID 2792).
Regarding `Nc1nc2ccccc2n1CCOc1ccc(Cl)cc1`, the IC50 (usually the point on the concentration scale where inhibition reaches its midpoint) is > 25 µM (inactive).
`CCCCn1c(SCC(=O)Nc2nnc(CC)s2)nc2c1c(=O)n(C)c(=O)n2C`: the IC50 is > 25 µM (inactive).
For `CCCCn1c(SCC(=O)c2ccccc2)nc2c1c(=O)[nH]c(=O)n2C`, the IC50 was > 25 µM (inactive).
For `CC(C)n1c(SCCCc2ccccc2)nc2c1c(=O)[nH]c(=O)n2C`, the IC50 is > 25 µM (inactive).
Turning to `CCCn1c(SCCc2ccccc2)nc2c1c(=O)[nH]c(=O)n2C`, the IC50 was > 25 µM (inactive).
The figure for `C=CCn1c(SCCCc2ccccc2)nc2c1c(=O)[nH]c(=O)n2C` is > 25 µM (inactive); for `Cn1c(=O)[nH]c(=O)c2c1nc([N+](=O)[O-])n2Cc1ccccc1` it is > 25 µM (inactive).
As for `C/C(Cl)=C\Cn1c(NCCc2ccccc2)nc2c1c(=O)n(C)c(=O)n2C`, the IC50 was > 25 µM (inactive).
For `C/C=C/Cn1c(SCc2ccccc2)nc2c1c(=O)[nH]c(=O)n2C`, the IC50 was > 25 µM (inactive).
`COCCn1c(SCCCc2ccccc2)nc2c1c(=O)[nH]c(=O)n2C`: the IC50 is > 25 µM (inactive).
The figure for `CCCCCn1c(SCCc2ccccc2)nc2c1c(=O)[nH]c(=O)n2C` is > 25 µM (inactive); for `CC(C)Sc1nc2c(c(=O)[nH]c(=O)n2C)n1Cc1ccccc1` it is > 25 µM (inactive); for `C/C=C/Cn1c(SCCCc2ccccc2)nc2c1c(=O)[nH]c(=O)n2C` it is > 25 µM (inactive).
As for `C/C=C/Cn1c(SCc2ccc(Cl)cc2)nc2c1c(=O)[nH]c(=O)n2C`, the IC50 was > 25 µM (inactive).
